Patent US20250099420A1, “SMALL MOLECULE MODULATORS OF GPR139 COMPLEX” (University of Florida Research Foundation, Incorporated, priority 2022, published 2025)
Read-outs that look alike come from different tables or passages of the source.

Experiments:
parental HEK cells = assay: HEK parental Agonist Counterscreen Assay (non-transfected cells); type: cell-based; settings: for Averaged Max % Response (±St. Dev.): activity relative to known control
From the text: The high control for the agonist counterscreen was Forskolin not acetylcholine.

GPR139 = target: T1, GPR139 (Homo sapiens, UniProt Q6DWJ6); assay: GPR139 Agonist titration / agonist counterscreen assay (calcium detection, HEK-GPR139 cells); type: cell-based; set-up: expressed in transfected cells; host or cells: HEK Aequorin cells, Maxcyte transient transfection; settings: GPR139 Agonist Activity; for EC50: read-out: EC50; for Averaged Max % Response (±St. Dev.): activity relative to known control
T1 sequence (Q6DWJ6 1-353): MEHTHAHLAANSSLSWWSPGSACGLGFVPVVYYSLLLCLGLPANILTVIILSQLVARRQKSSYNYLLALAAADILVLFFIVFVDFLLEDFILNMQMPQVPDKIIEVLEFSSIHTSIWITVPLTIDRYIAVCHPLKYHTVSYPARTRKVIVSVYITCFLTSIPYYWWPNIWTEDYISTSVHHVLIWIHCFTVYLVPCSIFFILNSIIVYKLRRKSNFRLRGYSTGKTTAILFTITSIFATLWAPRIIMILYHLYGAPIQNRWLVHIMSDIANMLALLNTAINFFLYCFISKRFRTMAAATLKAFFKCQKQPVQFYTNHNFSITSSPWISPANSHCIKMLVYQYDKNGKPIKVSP
Protocol: GPR activity was assessed using a calcium detection assay. […] Negative control samples were treated with DMSO. […] Intracellular calcium was measured using Calcium 5.

[1] = HEK Agonist Activity section of Table 4 (parental HEK counterscreen)
[2] = Homo sapiens, HEK293, HEK Agonist Activity, parental non-transfected HEK cells
[3] = values printed in E-notation without unit
[4] = Homo sapiens, HEK293, HEK Agonist Activity section of Table 4 (parental HEK counterscreen)

Row | Structure (SMILES) | Lipophilic Efficiency (logD) (parental HEK cells; HEK Agonist Activity section) | Lipophilic Efficiency (logP) (parental HEK cells; HEK Agonist Activity section) | EC50 (parental HEK cells; [1]) [µM] | Averaged Max % Response (±St. Dev.) (parental HEK cells; HEK Agonist Activity section) [%] | Efficiency Ligand (GPR139) | Hill Slope (GPR139) | Lipophilic Efficiency (logD) (GPR139) | Lipophilic Efficiency (logP) (GPR139) | EC50 (GPR139; HEK-GPR139 cells) [µM] | Averaged Max % Response (±St. Dev.) (GPR139) [%] | Lipophilic Efficiency (logD) (parental HEK cells; HEK Agonist Activity) | Lipophilic Efficiency (logP) (parental HEK cells; HEK Agonist Activity) | Averaged Max % Response (±St. Dev.) (parental HEK cells; HEK Agonist Activity) [%] | EC50 (parental HEK cells; [2]) [µM] | Lipophilic Efficiency (logD) (GPR139; based on logD) | Lipophilic Efficiency (logP) (GPR139; based on logP) | Hill Slope (GPR139; fitted dose-response curve) | Efficiency Ligand (GPR139; ligand efficiency) | EC50 (GPR139; [3]) [µM] | EC50 (parental HEK cells; [4]) [µM]
1 | O=C(COc1ccc2ccccc2c1)NNC(=O)c1cccc([N+](=O)[O-])c1 [SR-01000362228] | 2.17 | 2.17 | > 14.1 | −0.15 ± 6.76 | 0.30 | 1.38 | 3.11 | 3.10 | 1.6 | 84.08 ± 9.93 | – | – | – | – | – | – | – | – | – | –
2 | Cc1ccc(S(=O)(=O)NC(=O)NC(C)Cc2ccccc2)cc1 (centres unmarked) [SR-01000362293] | – | – | – | – | – | – | – | – | – | 100.19 ± 16.30 | 2.39 | 1.45 | −7.08 ± 3.92 | > 14.1 | 5.01 | 4.07 | 1.02 | 0.46 | 0.0335 | –
3 | COc1cccc(COC(=O)NC(C)C2COc3ccccc3O2)c1 (centres unmarked) [SR-01000362527] | 1.68 | 1.68 | – | 12.25 ± 2.76 | 0.34 | 0.88 | 2.98 | 2.98 | 0.701 | 96.08 ± 11.27 | – | – | – | – | – | – | – | – | – | > 14.1
4 | C#CC1=C(CCCc2ccc(CC)cc2)CC(CCc2ccccc2CC)=C1 [SR-01000363853] | 1.79 | 1.79 | – | −6.20 ± 7.21 | 0.29 | 0.77 | 2.73 | 2.73 | – | 87.50 ± 15.37 | – | – | – | – | – | – | – | – | – | > 14.1
5 | Cc1ccc(CNc2nc3ccccc3n2CCN2CCOCC2)cc1 [SR-01000364205] | 1.29 | 1.08 | – | −1.19 ± 1.27 | 0.33 | 1.55 | 2.50 | 2.29 | – | 94.68 ± 16.83 | – | – | – | – | – | – | – | – | – | > 14.1
6 | COc1cccc(C(=O)NNC(=O)COc2ccc(C)cc2Br)c1 [SR-01000369718] | – | – | – | – | – | – | – | – | – | 111.46 ± 12.99 | 1.98 | 1.98 | 7.35 ± 13.00 | > 14.1 | 5.36 | 5.36 | 0.33 | 0.48 | 0.0059 | –
7 | CC(Oc1ccc(Cl)cc1Cl)C(=O)NNC(=O)COc1ccccc1 (centres unmarked) [SR-01000370374] | 1.71 | 1.66 | – | 4.76 ± 6.67 | – | – | – | – | – | 100.37 ± 4.50 | – | – | – | – | 3.80 | 3.75 | 0.87 | 0.39 | 0.114 | > 14.1
8 | CC(C(=O)NCCn1nnn(-c2ccccc2)c1=O)n1nc2ccccc2n1 (centres unmarked) [SR-01000373848] | 1.47 | 1.47 | > 14.1 | 7.32 ± 0.96 | 0.32 | 0.90 | 3.07 | 3.07 | 0.354 | 97.42 ± 13.41 | – | – | – | – | – | – | – | – | – | –
9 | CCSc1nc2sccn2c(=O)c1C(=O)NC(C)c1ccccc1 (centres unmarked) [SR-01000378352] | 1.53 | 1.53 | – | 8.83 ± 9.35 | 0.36 | 1.14 | 2.89 | 2.89 | 0.616 | 93.30 ± 10.83 | – | – | – | – | – | – | – | – | – | > 14.1
10 | CS(=O)(=O)c1cccc(C(=O)NCCCN2CCc3ccccc32)c1 [SR-01000387617] | 2.95 | 2.95 | – | 2.04 ± 4.49 | 0.35 | 0.75 | 4.28 | 4.28 | 0.661 | 81.90 ± 12.88 | – | – | – | – | – | – | – | – | – | > 14.1
11 | O=C(O)c1ccccc1C(=O)c1cccc2ccccc12 [SR-01000391835] | 4.05 | 0.66 | – | 10.10 ± 5.45 | – | – | – | – | – | 104.57 ± 1.81 | – | – | – | – | 5.91 | 2.52 | 0.80 | 0.44 | 0.254 | > 18.3
12 | CCc1c(C2C(C(=O)OCc3ccccc3)=C(C)CC3=C2C(=O)CCC3)ccc(OC)c1OC (centres unmarked) [SR-01000406098] | 1.55 | 1.55 | – | 7.56 ± 6.15 | 0.24 | 1.97 | 2.46 | 2.46 | – | 80.99 ± 4.70 | – | – | – | – | – | – | – | – | – | > 11.5
13 | Cc1ccccc1C(=O)NNC(=O)C(C)Oc1ccc(Cl)cc1Cl (centres unmarked) [SR-01000410694] | 0.98 | 0.95 | – | 10.08 ± 3.68 | – | – | – | – | – | 91.99 ± 13.68 | – | – | – | – | 2.98 | 2.96 | 1.03 | 0.41 | 0.1 | > 10.2
14 | Cc1cccc(C(=O)NNC(=O)C(C)Oc2ccc(O)cc2O)c1 (centres unmarked) [SR-01000410744] | – | – | – | – | – | – | – | – | – | 114.68 ± 11.76 | 0.98 | 0.95 | 17.10 ± 14.93 | > 10.2 | 5.27 | 5.24 | – | 0.54 | < 0.000517 | –
15 | COc1ccc(CCNC(=O)COc2ccc(Cl)cc2Cl)cc1 [SR-01000412367] | – | – | – | – | – | – | – | – | – | 112.23 ± 25.44 | 1.11 | 1.11 | 5.28 ± 6.57 | > 13 | 4.43 | 4.43 | 0.32 | 0.50 | 0.0062 | –
